According to US8290713B2, “Method for predicting protein aggregation and designing aggregation inhibitors” (Lonza Biologics PLLC, priority 2006, dated 2012):

Target: ASYN (α-synuclein) (Homo sapiens, UniProt P37840)
Assay: ASYN aggregation assay in TBS monitored by thioflavin T fluorescence
Type: biochemical
Conditions: 50 μM ASYN, 100 μM inhibitor, 50 mM tris, 150 mM NaCl, 20 μM Thioflavin T, 37 C with shaking, 48 hours; sigmoidal fit
Method: All peptides were tested for inhibition of ASYN aggregation in TBS by carrying out aggregation assays with 50 μM ASYN and 100 μM inhibitor with 50 mM tris and 150 mM NaCl and 20 μM Thioflavin T. The reaction volume was 200 μL. Each reaction was set up in a 96 well polypropylene plate with ASYN only and buffer only controls. The reactions were incubated at 37 C with shaking for 48 hours and aggregation was monitored by reading thioflavin T fluorescence.
The kinetic traces were fitted using Zyentiafit software which fits the data to a Sigmoidal function f(x)=k+A/(1+exp(−b(t−t0))) from which the lag time, rate of aggregation and total change in ThT fluorescence may be calculated.

% decrease in ThT fluorescence: 3.7%
% decrease in rate of aggregation: −2.3%
% increase in Lag phase: 43.0%
Substance: Ac-hpviva-NH2 [ZP-0164]
